These results are taken from patent US20110150914A1, “COMPOSITIONS AND METHODS FOR DENGUE VIRUS (DV) TREATMENT AND VACCINATION” (priority 2008, published 2011).

Ends that are not written are not given here.

For assay [1], the system named is CD8^+ T cells. Briefly: Intracellular cytokine staining (IFN-γ), splenocytes of S221-infected IFN-α/βR^−/− mice. The format is cell-based. The conditions noted are these: day 7 after 10^10 GE S221. The method, then:
(§1) All Ab were purchased from eBioscience with the exception of anti-CD8α-PerCP and anti-CD107a-FITC which were obtained from BD Biosciences. RBC in blood were lysed using RBC lysis buffer (eBioscience). For surface staining, splenocytes or blood cells were washed, incubated with supernatant from 2.4G2-producing hybridoma cells to block Fc receptors, and labeled with anti-CD8α-PerCP, anti-CD44-APC, and anti-CD62L-PE. For intracellular cytokine staining, 10^6 splenocytes or 10^5 blood cells were plated in 96-well U-bottom plates and stimulated with individual DENV peptides (0.1 μg/ml) in the presence of brefeldin A (GolgiPlug, BD Biosciences) for 5 h. For CD107a staining, CD107a-FITC (or rat IgG2a-FITC) was added to the wells at the same time as the peptide. Cells were washed, incubated with 2.4G2 supernatant, labeled with anti-CD8α-PerCP, fixed and permeabilized using the BD Cytofix/Cytoperm Kit, and stained with anti-IFN-γ-APC and anti-TNF-α-PE. Samples were read on a FACS Caliber (BD Biosciences) and analyzed using FloJo software (Tree Star, Inc.)
The S221-specific CD8^+ T cell response in the IFN-α/βR^−/− mice was studied. […]
The S221-specific CD8^+ T cell response in IFN-α/βR^−/− mice was further studied. […] Referring to FIGS. 5C, 5E and 5F, the number of splenic CD8^+ T cells in naïve (n=4) and infected (n=7) mice was measured (results described above). […] The data are expressed as the percent±SEM of seven mice tested in three independent experiments.
The initial epitope identification studies were performed in wild-type mice. […] Cells were then stained for surface CD8 and intracellular IFN-γ and analyzed by flow cytometry. […] Results are expressed as the mean±SEM of 13 wild-type and 7 IFN-α/βR^−/− mice were tested in at least three independent experiments. Referring FIGS. 8C and D, the figures show kinetics of the DENV-specific CD8^+ T cell response as determined by the study. […]

Assay [2] has as its system CD8^+ T cells. Briefly: TNF-α and CD107a staining after peptide re-stimulation. The format is cell-based, wild-type or IFN-α/βR^−/− mice. As to conditions: splenocytes day 7 after S221 infection. The method, then:
as §1
Because polyfunctional CD8^+ T cell responses are associated with protection (Harari et al., Immunol Rev 211:236 (2006)), the phenotype of the DENV-specific CD8^+ T cells in wild-type and IFN-α/βR^−/− mice was studied in more detail by measuring CD107a expression (CD107a, or LAMP-1, is expressed on the cell surface upon degranulation) and TNF-α production for two of the DENV-specific CD8^+ T cell populations, as described above. To collect the data, splenocytes harvested from wild-type or IFN-α/βR^−/− mice 7 days after infection with 10^11 or 10^10 GE of S221, respectively, were re-stimulated in vitro with C51-59, NS4B99-107, or an irrelevant peptide. An anti-CD107a Ab was added for the duration of the stimulation. Cells were then stained for surface CD8, intracellular IFN-γ and TNF-α, and analyzed by flow cytometry.

Assay [3] relates to DENV peptide-pulsed target cells. Briefly: In vivo cytotoxicity assay. As to conditions: IFN-α/βR^−/− mice infected 7 days previously with 10^10 GE S221; 4 h after i.v. transfer; targets pulsed 0.5 μg/ml.

In the case of YSQVNPITL [NS4B99-107], the “% of splenic CD8^+ T cells recognizing the peptide” value in the assay with CD8^+ T cells [1] is 16.5%. The “number of CD8^+ T cells producing IFN-γ (average)” value in the assay with CD8^+ T cells [1] (spleen) is 1.1×10^7 CD8^+ T cells. Moreover, in the assay with CD8^+ T cells [2], the “CD107a surface expression (degranulation)” value is listed as “expressed CD107a on the surface” and the “TNF-α production by peptide-specific CD8^+ T cells” value is “produced TNF-α”. Also, in assay [3], the “percentage killing of peptide-pulsed target cells” value is on record as 85%.
